“And” between values parts separate entries of the source, which are not always exact repeats. Identical values can stand only once.
Key:
Type in all cases: in vivo, mouse
[1] = Whole blood concentrations after IP administration to mice (LC-MS/MS); conditions: 10 mg/kg IP QD x 3 days; for Formula II Concentrations in Mouse Whole Blood: individual animals 10, 11, 12
Method: Shown below are whole blood concentrations following administration of the compound of Formula II to mice. The compound of Formula II was administered to mice at 2 mg/kg or 10 mg/kg for three days and the concentration of the compound in whole blood determined. These determinations were made using protein precipitation, liquid chromatography (LC), and mass spectrometry (MS/MS). Ten μl aliquots of whole blood and matrix calibration standards were distributed in a 96-well plate; 10 μl aliquots of blank matrix for matrix blanks and control blanks were included as controls. Ten μl of water was added to each sample followed by vortexing. One hundred sixty […] of internal standard was added to each sample except the matrix blanks; 160 μl 70:30 water:acetonitrile (ACN) was added to matrix blanks. This was followed by a […]. One hundred fifty μl of the resultant supernatant was then transferred to a new 96-well plate and the samples blown to dryness at 35° C. The resultant product was then reconstituted with 90 μl ACN.

[2] = Brain concentrations after IP administration to mice (LC-MS/MS); conditions: for Formula II Concentrations in Mouse Brain / Formula II Concentrations in Mouse Brain, Mean: Day 3, 24.0 h
Method: To carry out these assays using brain homogenates, 20 uL of samples and matrix calibration standards into wells of a 96-well plate, and 10 uL of blank matrix allocated for matrix blanks and control blanks. 160 uL internal standard was then added to all samples except matrix blanks, and 160 uL ACN added to matrix blanks. Samples were then vortexed for 5 minutes and centrifuge for 5 minutes at >3500 rpm. 150 uL of the supernatant was then transferred to a new 96-well plate, and the plates blown down to dryness at 35° C., reconstituted with 90 uL of 70:30 water:acetonitrile (ACN) solution, covered and vortexed prior to analysis. LC and MS conditions were the same as described above for the whole blood analysis. […] The compound of Formula II was administered to mice at 2 mg/kg or 10 mg/kg for three days and the concentration of the compound in brain determined.

[3] = system: 6-OHDA injected mice; assay: 6-OHDA cylinder test (motor performance, contralateral touches); conditions: 10 mg/kg, FIG. 2B
Method: An analysis of the neuroprotective effects of the compound of Formula II on motor performance was performed using the 6-OHDA cylinder test (FIG. 2A) which evaluates spontaneous motor changes associated with dopamine depletion in the striatum of 6-OHDA injected mice. […] Control mice were administered the vehicle control only. […] The data is presented in FIG. 2B as mean and standard error of the mean (SEM). Statistical analyses as compared to baseline mice were performed using the one-way Anova test (*: p<0.05; n.s.: not significant). […] Data is presented as mean and SEM. Statistical analyses were performed using One-way Anova test (*: p<0.05; ***: p<0.001. n.s.: not significant.)

[4] = system: 6-OHDA injected mice; assay: Anti-TH immunohistochemistry, 6-OHDA-induced neuronal loss (TH-positive somas in SN)
Method: Immunohistochemistry analysis using anti-tyrosine hydroxylase (TH) antibody was also performed to quantify 6-OHDA-induced neuronal loss in mice injected with 6-OHDA and non-injected (control) sides of the brain. […] FIG. 4B presents the mean and standard error of the mean (SEM) as well as statistical analysis of the results.

Compound: CO[C@H]1C[C@@H]2CC[C@@H](C)[C@@](O)(C2)C(=O)C(=O)N2CCCC[C@H]2C(=O)O[C@H]([C@H](C)C[C@H]2C[C@H]3C[C@@H]2C[C@@H]3O)CC(=O)[C@H](C)/C=C(\C)[C@@H](O)[C@@H](OC)C(=O)[C@H](C)C[C@H](C)/C=C/C=C/C=C/1C [Formula II, C37-[(1R,2S,4R,5S)-5-hyhroxybicyclo[2.2.1]heptane] rapamycin]
- Formula II Concentrations in Mouse Whole Blood ([1]; Day 1, 6.00 h): 1000 ng/mL and 1950 ng/mL and 544 ng/mL
- Formula II Concentrations in Mouse Whole Blood, Mean ([1]; Day 1, 6.00 h, mean): 1165 ng/mL
- Formula II Concentrations in Mouse Whole Blood ([1]; Day 1, 24.0 h): 222 ng/mL and 181 ng/mL and 210 ng/mL
- Formula II Concentrations in Mouse Whole Blood, Mean ([1]; Day 1, 24.0 h, mean): 204 ng/mL
- Formula II Concentrations in Mouse Whole Blood ([1]; Day 2, 1.00 h): 3410 ng/mL and 2970 ng/mL and 546 ng/mL
- Formula II Concentrations in Mouse Whole Blood, Mean ([1]; Day 2, 1.00 h, mean): 2309 ng/mL
- Formula II Concentrations in Mouse Whole Blood ([1]; Day 2, 2.00 h): 3670 ng/mL and 3930 ng/mL and 2370 ng/mL
- Formula II Concentrations in Mouse Whole Blood, Mean ([1]; Day 2, 2.00 h, mean): 3323 ng/mL
- Formula II Concentrations in Mouse Whole Blood ([1]; Day 2, 6.00 h): 2770 ng/mL and 3390 ng/mL and 609 ng/mL
- Formula II Concentrations in Mouse Whole Blood, Mean ([1]; Day 2, 6.00 h, mean): 2256 ng/mL
- Formula II Concentrations in Mouse Whole Blood ([1]; Day 2, 24.0 h): 123 ng/mL and 336 ng/mL and 78.0 ng/mL
- Formula II Concentrations in Mouse Whole Blood, Mean ([1]; Day 2, 24.0 h, mean): 179 ng/mL
- Formula II Concentrations in Mouse Whole Blood ([1]; Day 3, 1.00 h): AQL and 3420 ng/mL and 987 ng/mL
- Formula II Concentrations in Mouse Whole Blood, Mean ([1]; Day 3, 1.00 h, mean (animal 10 AQL)): 2204 ng/mL
- Formula II Concentrations in Mouse Whole Blood ([1]; Day 3, 2.00 h): 5170 ng/mL and 3650 ng/mL and 777 ng/mL
- Formula II Concentrations in Mouse Whole Blood, Mean ([1]; Day 3, 2.00 h, mean): 3199 ng/mL
- Formula II Concentrations in Mouse Whole Blood ([1]; Day 3, 6.00 h): 3330 ng/mL and 2890 ng/mL and 730 ng/mL
- Formula II Concentrations in Mouse Whole Blood, Mean ([1]; Day 3, 6.00 h, mean): 2317 ng/mL
- Formula II Concentrations in Mouse Whole Blood ([1]; Day 3, 24.0 h): 223 ng/mL and 323 ng/mL and 124 ng/mL
- Formula II Concentrations in Mouse Whole Blood, Mean ([1]; Day 3, 24.0 h, mean): 223 ng/mL
- concentrations in brain over time (in words) ([2]; 2 mg/kg or 10 mg/kg IP QD for three days, mice): sufficient concentrations in brain overtime
- Formula II Concentrations in Mouse Brain ([2]; Group 1, 2 mg/kg IP QD x 3 days, individual animals 7, 8, 9): 33.7 ng/g and 27.6 ng/g and 31.4 ng/g
- Formula II Concentrations in Mouse Brain, Mean ([2]; Group 1, 2 mg/kg IP QD x 3 days): 30.9 ng/g
- Formula II Concentrations in Mouse Brain ([2]; Group 2, 10 mg/kg IP QD x 3 days, individual animals 10, 11, 12): 121 ng/g and 136 ng/g and 224 ng/g
- Formula II Concentrations in Mouse Brain, Mean ([2]; Group 2, 10 mg/kg IP QD x 3 days): 160 ng/g
- number of touches compared with rapamycin and vehicle control [3]: clearly outperformed rapamycin and the vehicle control
- contralateral touches, difference from baseline (one-way Anova) ([3]; three days pre-treatment before 6-OHDA (80 μg)): non-significant difference from baseline
- 6-OHDA-induced neuronal loss (TH-positive somas, SN) compared with vehicle control ([4]; 6-OHDA injected mice, FIG. 4A): decreased 6-OHDA-induced neuronal loss as compared to vehicle control
- TH+ neuronal loss, p versus vehicle control ([4]; one-way ANOVA, FIG. 4B): < 0.01
